Data from patent publication US5196437A, “Method for treating hepatic diseases and regenerating liver tissue using FK 506 and related compounds” (Fujisawa Pharmaceutical Company, Ltd., priority 1990, dated 1993).

Experiments:
hepatocytes in culture = conditions: literature (Francavilla et al); cited from earlier work
[1] = test system: hepatocytes / rat liver regeneration; assay: Rat liver regeneration (3H-thymidine incorporation into hepatic DNA and hepatocyte mitosis) after sham operation or 40%/70% hepatectomy; assay type: in vivo, rat (Fisher 344); conditions: for 3H-thymidine incorporation / Proportion of hepatocytes in mitosis: 4 days, mean (SE)
Method: Adult male inbred Fisher 344 rats weighing 180-200 g were purchased from Hilltop Lab Animals Inc (Scottdale, Pa.). The animals were given standard rat laboratory diet and water ad libitum in a temperature and light controlled room (light 0730-1930). […] Animals in groups 3 and 4 had sham operations in which the liver was manipulated at laparotomy. Food and drink were allowed immediately. Parenteral fluid and electrolyte support were not required.
24 h after the hepatectomies, 185×10^4 Bq ^3 H-thymidine was administered to all rats by intraperitoneal injection. The rats, including groups 1 and 2, were killed 2 h later by guillotine. Extraction and purification of hepatic DNA were done with the method of Ove et al (Liver and hormones, New York: Raven Press, 1987:265-76) and DNA content was measured with calf thymus DMA (Sigma) as standard. Specimens from each liver were prepared for histological examination with hematoxylin and eosin and the proportion of hepatocytes in mitosis was counted. All results are means and SE.

[2] = test system: acute and chronic liver allograft rejection; conditions: humans; compared with previous compounds; cited from earlier work
midzonal hepatocytes = assay: Eck fistula dogs, left portal vein infusion: electron microscopy of hepatocyte organelles; assay type: in vivo, dog (beagle); conditions: for Organelle volume in average midzonal hepatocytes, Lipids, Left / Organelle volume in average midzonal hepatocytes, Lysosomes, Left / Organelle volume in average midzonal hepatocytes, Microbodies, Left / Organelle volume in average midzonal hepatocytes, Mitochondria, Left / Area of rough endoplasmic reticulum per average midzonal hepatocyte, Left / Area of smooth endoplasmic reticulum per average midzonal hepatocyte, Left: left (infused) lobe; for Organelle volume in average midzonal hepatocytes, Lipids, Left / Organelle volume in average midzonal hepatocytes, Lysosomes, Left / Organelle volume in average midzonal hepatocytes, Microbodies, Left / Organelle volume in average midzonal hepatocytes, Mitochondria, Left / Area of rough endoplasmic reticulum per average midzonal hepatocyte, Left / Area of smooth endoplasmic reticulum per average midzonal hepatocyte, Left / Organelle volume in average midzonal hepatocytes, Lipids, Right / Organelle volume in average midzonal hepatocytes, Lysosomes, Right / Organelle volume in average midzonal hepatocytes, Microbodies, Right / Organelle volume in average midzonal hepatocytes, Mitochondria, Right / Area of rough endoplasmic reticulum per average midzonal hepatocyte, Right / Area of smooth endoplasmic reticulum per average midzonal hepatocyte, Right: mean +/- SD; for Area of rough endoplasmic reticulum per average midzonal hepatocyte, Left: left vs right 0.0001; for Organelle volume in average midzonal hepatocytes, Lipids, Right / Organelle volume in average midzonal hepatocytes, Lysosomes, Right / Organelle volume in average midzonal hepatocytes, Microbodies, Right / Organelle volume in average midzonal hepatocytes, Mitochondria, Right / Area of rough endoplasmic reticulum per average midzonal hepatocyte, Right / Area of smooth endoplasmic reticulum per average midzonal hepatocyte, Right: right lobe
Method: Twenty adult female beagle dogs underwent Eck fistula (Starzl et al, Lancet, 1976, 1:821-25). After performing a large side to side portacaval shunt, the left and right portal vein branches were ligated. A small infusion catheter was tied into the left branch and led through the abdominal wall and subcutaneously to a battery charged infusion pump that was incorporated into a non-restraining body cast. A constant infusion was started of the control or test fluids at the volume of 20 to 30 ml/day. Oral fluids and diet were allowed ad lib. Four days later, the animals were administered 0.2 mCi/kg (CH3 -^3 H)-thymidine with specific activity of 80-90 Ci/MMol (New England Nuclear, Boston). Two hours later, the dogs were anesthetized and killed.
For studies of the organelles, small cubes of each hepatic sample were taken for electron microscopy. The tissue was post-fixed in glutaraldehyde followed by osmic acid. After embedding in Polarbed. 812 resin, ultrathin sections were cut, stained with lead citrate and examined in a Philip's 300 electron microscope. Measurements of the organelles were made on electron micrographs by Loud's method (Loud, J Cell Biol, 1968, 37:27-46).
Results are expressed as mean±standard deviation (SD). The Student's t-test was employed in individual experimental groups to compare differences between right and left lobes or between groups. A p value less than 0.05 was considered to be significant.

[3] = group 2: FK 506 1 mg/kg IM, no operation
[4] = group 10: FK 506 1 mg/kg IM, 70% hepatectomy, p < 0.01 vs group 8

Which “direct effect on hepatocytes in culture” value (hepatocytes in culture) does the source give for `C=CCC1C=C(C)CC(C)CC(OC)C2OC(O)(C(=O)C(=O)N3CCCCC3C(=O)OC(C(C)=CC3CCC(O)C(OC)C3)C(C)C(O)CC1=O)C(C)CC2OC` (centres unmarked) [FK 506] here?
Its value is “no direct effect”.

And the “regeneration after hepatectomy compared with controls” value ([1]; 4 days pretreatment, intramuscular FK 506 or oral cyclosporin)?
Its value is “significantly augmented compared with controls”.

What about the “hepatocyte mitosis and DNA synthesis in sham operation group” value ([1]; FK 506 added to sham operation) of the same compound?
Its value is “further and significantly increased”.

And the 3H-thymidine incorporation [1, 3]?
The 3H-thymidine incorporation was 3.2 × 10^3 cpm/mg DNA.

And the “Proportion of hepatocytes in mitosis” value [1, 3]?
The value was 1.7%.

What about the 3H-thymidine incorporation ([1]; group 4: FK 506 1 mg/kg IM, sham operation, p < 0.005 vs groups 1, 2 and 3) of the same compound?
Its 3H-thymidine incorporation is 10.5 × 10^3 cpm/mg DNA.

What about the “Proportion of hepatocytes in mitosis” value ([1]; group 4: FK 506 1 mg/kg IM, sham operation, p < 0.05 vs groups 1 and 2) of the same compound?
The value was 9.5%.

What about the 3H-thymidine incorporation ([1]; group 6: FK 506 1 mg/kg IM, 40% hepatectomy, p < 0.001 vs group 5) of the same compound?
Its 3H-thymidine incorporation is 32.4 × 10^3 cpm/mg DNA.

What about the 3H-thymidine incorporation [1, 4] of the same compound?
Its 3H-thymidine incorporation is 242.0 × 10^3 cpm/mg DNA.

And the “Proportion of hepatocytes in mitosis” value [1, 4]?
Its value is 59.0%.

And the “regeneration effect, FK 506 compared with cyclosporin” value ([1]; group 10 compared with group 9, 70% hepatectomy)?
Its value is “greater with FK 506 than with cyclosporin”.

What about the “resting hepatocyte mitosis or DNA synthesis” value ([1]; unoperated rats) of the same compound?
Its value is “did not increase”.

And the “acute and chronic liver allograft rejection” value [2]?
Its value is “prevent acute and chronic liver allograft rejection in humans more reliably and completely than has been possible with previous compounds”.

And the “Organelle volume in average midzonal hepatocytes, Lipids, Left” value (midzonal hepatocytes; 0.01 mg/kg/day, left vs right p 0.0012)?
Its value is 23.3 +/- 8.8 uM^3.

And the “Organelle volume in average midzonal hepatocytes, Lysosomes, Left” value (midzonal hepatocytes; 0.01 mg/kg/day, left vs right p 0.0017)?
Its value is 62.3 +/- 15.1 uM^3.

And the “Organelle volume in average midzonal hepatocytes, Microbodies, Left” value (midzonal hepatocytes; 0.01 mg/kg/day, left vs right p 0.0080)?
The value was 99.2 +/- 11.8 uM^3.

What about the “Organelle volume in average midzonal hepatocytes, Mitochondria, Left” value (midzonal hepatocytes; 0.01 mg/kg/day, left vs right p 0.1903) of the same compound?
The value was 1233.7 +/- 222.4 uM^3.

What about the “Area of rough endoplasmic reticulum per average midzonal hepatocyte, Left” value (midzonal hepatocytes; 0.01 mg/kg/day, p vs vehicle 0.0000) of the same compound?
The value was 26332 +/- 1483 uM^2.

And the “Area of smooth endoplasmic reticulum per average midzonal hepatocyte, Left” value (midzonal hepatocytes; 0.01 mg/kg/day, p vs vehicle 0.0661, left vs right 0.0000)?
Its value is 18433 +/- 535 uM^2.

And the “Organelle volume in average midzonal hepatocytes, Lipids, Right” value (midzonal hepatocytes; 0.01 mg/kg/day)?
The value was 81.0 +/- 15.1 uM^3.

And the “Organelle volume in average midzonal hepatocytes, Lysosomes, Right” value (midzonal hepatocytes; 0.01 mg/kg/day)?
Its value is 162.6 +/- 48.9 uM^3.

What about the “Organelle volume in average midzonal hepatocytes, Microbodies, Right” value (midzonal hepatocytes; 0.01 mg/kg/day) of the same compound?
The value was 173.8 +/- 39.6 uM^3.

What about the “Organelle volume in average midzonal hepatocytes, Mitochondria, Right” value (midzonal hepatocytes; 0.01 mg/kg/day) of the same compound?
The value was 1429.5 +/- 331.2 uM^3.

What about the “Area of rough endoplasmic reticulum per average midzonal hepatocyte, Right” value (midzonal hepatocytes; 0.01 mg/kg/day, p vs vehicle 0.0019) of the same compound?
The value was 18697 +/- 1010 uM^2.

And the “Area of smooth endoplasmic reticulum per average midzonal hepatocyte, Right” value (midzonal hepatocytes; 0.01 mg/kg/day, p vs vehicle 0.1092)?
The value was 23337 +/- 902 uM^2.

What about the “Organelle volume in average midzonal hepatocytes, Lysosomes, Left” value (midzonal hepatocytes; 0.1 mg/kg/day, left vs right p 0.0000) of the same compound?
The value was 59.6 +/- 15.6 uM^3.

And the “Organelle volume in average midzonal hepatocytes, Lipids, Left” value (midzonal hepatocytes; 0.1 mg/kg/day, left vs right p 0.0011)?
Its value is 22.8 +/- 6.7 uM^3.

And the “Organelle volume in average midzonal hepatocytes, Microbodies, Left” value (midzonal hepatocytes; 0.1 mg/kg/day, left vs right p 0.0025)?
The value was 86.3 +/- 11.5 uM^3.

And the “Organelle volume in average midzonal hepatocytes, Mitochondria, Left” value (midzonal hepatocytes; 0.1 mg/kg/day, left vs right p 0.2529)?
Its value is 1288.5 +/- 236.2 uM^3.

What about the “Area of rough endoplasmic reticulum per average midzonal hepatocyte, Left” value (midzonal hepatocytes; 0.1 mg/kg/day, p vs vehicle 0.0001) of the same compound?
Its value is 29889 +/- 1117 uM^2.

And the “Area of smooth endoplasmic reticulum per average midzonal hepatocyte, Left” value (midzonal hepatocytes; 0.1 mg/kg/day, p vs vehicle 0.0703, left vs right 0.0018)?
Its value is 18688 +/- 498 uM^2.

What about the “Organelle volume in average midzonal hepatocytes, Lipids, Right” value (midzonal hepatocytes; 0.1 mg/kg/day) of the same compound?
Its value is 83.8 +/- 19.7 uM^3.

What about the “Organelle volume in average midzonal hepatocytes, Lysosomes, Right” value (midzonal hepatocytes; 0.1 mg/kg/day) of the same compound?
The value was 187.6 +/- 14.8 uM^3.

And the “Organelle volume in average midzonal hepatocytes, Microbodies, Right” value (midzonal hepatocytes; 0.1 mg/kg/day)?
The value was 172.5 +/- 34.2 uM^3.

And the “Organelle volume in average midzonal hepatocytes, Mitochondria, Right” value (midzonal hepatocytes; 0.1 mg/kg/day)?
The value was 1439.3 +/- 115.4 uM^3.

And the “Area of rough endoplasmic reticulum per average midzonal hepatocyte, Right” value (midzonal hepatocytes; 0.1 mg/kg/day, p vs vehicle 0.0007)?
The value was 20325 +/- 975 uM^2.

What about the “Area of smooth endoplasmic reticulum per average midzonal hepatocyte, Right” value (midzonal hepatocytes; 0.1 mg/kg/day, p vs vehicle 0.0725) of the same compound?
The value was 22747 +/- 1305 uM^2.

What about the “preservation of the RER in the right lobes” value (midzonal hepatocytes; 1 mg/kg/day, compared to vehicle controls) of the same compound?
The value was “better preservation of the RER”.
